What was measured:
D(3) dopamine receptor = D(3) dopamine receptor (Homo sapiens, UniProt P35462)
Description: Displacement of [3H]spiroperidol from human cloned dopamine D3 receptor by liquid scintillation counting

[1] = Lipophilicity, log P of the compound; type: physicochemical; settings: octanol/water
[2] = Dissociation constant, pKa of the compound; type: physicochemical
[3] = Lipophilicity, log P at pH 7.4; type: physicochemical; settings: buffer
D(2) dopamine receptor = D(2) dopamine receptor (Homo sapiens, UniProt P14416)
D(2) dopamine receptor, sequence (P14416 whole entry): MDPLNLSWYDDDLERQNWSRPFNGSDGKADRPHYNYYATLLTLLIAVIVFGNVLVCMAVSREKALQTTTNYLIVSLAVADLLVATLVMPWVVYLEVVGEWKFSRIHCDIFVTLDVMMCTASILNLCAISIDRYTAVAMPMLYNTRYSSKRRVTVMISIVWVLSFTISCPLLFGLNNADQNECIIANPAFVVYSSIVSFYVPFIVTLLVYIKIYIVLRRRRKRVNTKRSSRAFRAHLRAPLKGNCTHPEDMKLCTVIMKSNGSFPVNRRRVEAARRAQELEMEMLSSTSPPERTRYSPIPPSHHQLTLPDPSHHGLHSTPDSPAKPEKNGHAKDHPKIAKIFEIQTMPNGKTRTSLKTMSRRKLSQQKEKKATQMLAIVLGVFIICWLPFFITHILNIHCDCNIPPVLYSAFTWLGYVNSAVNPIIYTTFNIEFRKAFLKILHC
Description: Displacement of [3H]spiroperidol from human cloned dopamine D2L receptor by liquid scintillation counting

D(3) dopamine receptor, sequence (P35462 whole entry): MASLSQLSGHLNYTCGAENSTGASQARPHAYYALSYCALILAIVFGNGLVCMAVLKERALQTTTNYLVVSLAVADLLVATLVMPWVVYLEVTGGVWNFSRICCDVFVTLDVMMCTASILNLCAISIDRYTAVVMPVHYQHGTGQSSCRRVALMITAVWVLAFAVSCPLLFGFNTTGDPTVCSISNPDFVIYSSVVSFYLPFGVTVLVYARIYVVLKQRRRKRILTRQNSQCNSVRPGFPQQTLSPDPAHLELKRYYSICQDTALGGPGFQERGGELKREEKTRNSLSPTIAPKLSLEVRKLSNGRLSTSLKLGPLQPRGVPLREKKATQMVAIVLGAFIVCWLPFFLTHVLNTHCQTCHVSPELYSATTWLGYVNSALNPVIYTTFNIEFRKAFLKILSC

SMILES	Ki (D(3) dopamine receptor)	logP [1]	pKa [2]	logD [3]	Ki (D(2) dopamine receptor)
COc1ccccc1N1CCN(CCCCNC(=O)c2ccc(-n3ccnc3)cc2)CC1	4.23 nM	3.1	8.05	2.39	51.7 nM
CCCN(CCC)C1CCc2cc(CS(=O)(=O)c3ccc(OC)cc3)ccc2C1 (configuration not stated)	1.3 nM	–	–	–	–
COc1ccccc1N1CCN(CCCNC(=O)c2ccc3nonc3c2)CC1	> 1000 nM	2.66	7.43	2.34	89.4 nM
O=C(NCCCCN1CCN(c2ccccc2OCCF)CC1)c1ccc(-n2ccnc2)cc1	2.95 nM	2.9	7.74	2.4	5.92 nM
COc1ccc(N2CCN(CCCCNC(=O)c3ccc(-n4ccnc4)cc3)CC2)cc1	211 nM	2.8	7.64	2.37	> 1000 nM
COc1ccccc1N1CCN(CCCCOc2ccc(C3CN4C=CSC4=N3)cc2)CC1 (configuration not stated)	0.12 nM	–	–	–	–
COc1ccccc1N1CCN(CCCNC(=O)c2ccc(-n3ccnc3)cc2)CC1	95.3 nM	2.59	7.53	2.22	121 nM
COc1cccc(N2CCN(CCCCNC(=O)c3ccc(-n4ccnc4)cc3)CC2)c1	19.9 nM	2.93	7.59	2.51	243 nM
COc1cc(F)cc(N2CCN(CCCCNC(=O)c3ccc(-n4ccnc4)cc3)CC2)c1	29.2 nM	3.16	7.52	2.8	133 nM

Second part, the compound after the results:

Ki (D(3) dopamine receptor)	logP [1]	pKa [2]	logD [3]	Ki (D(2) dopamine receptor)	SMILES
4.7 nM	2.79	7.78	2.26	31 nM	COc1ccccc1N1CCN(CCCCNC(=O)c2ccc3nonc3c2)CC1
6220 nM	2.77	7.51	2.41	> 1000 nM	COc1ccc(N2CCN(CCCCNC(=O)c3ccc4nonc4c3)CC2)cc1
658 nM	3.34	7.34	3.12	1340 nM	COc1cc(F)cc(N2CCN(CCCCNC(=O)c3ccc4nonc4c3)CC2)c1
170 nM	2.8	7.44	2.48	> 100 nM	COc1cccc(N2CCN(CCCCNC(=O)c3ccc4nonc4c3)CC2)c1
47.2 nM	2.9	7.56	2.51	196 nM	O=C(NCCCCN1CCN(c2cccc(OCCF)c2)CC1)c1ccc(-n2ccnc2)cc1
226 nM	2.87	7.47	2.53	> 1000 nM	O=C(NCCCCN1CCN(c2cccc(OCCF)c2)CC1)c1ccc2nonc2c1
22.1 nM	2.79	7.78	2.26	17.8 nM	O=C(NCCCCN1CCN(c2ccccc2OCCF)CC1)c1ccc2nonc2c1

From ChEMBL document CHEMBL1140855, “Design, synthesis, and binding affinities of potential positron emission tomography (PET) ligands with optimal lipophilicity for brain imaging of the dopamine D3 receptor. Part II” (Bioorg Med Chem, 2009)
